Assay results published in ChEMBL document CHEMBL1201862, “PubChem BioAssay data set” (2004).
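A five-concentration, 48-hour dose response in 96-well plates underlies each endpoint, interpolated linearly between surrounding concentrations. GI50 is the concentration that inhibits growth by half.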 Calls of active or inactive are those of the source. Rule as the data show it: active = GI50 up to about 1.1 µM and inactive = higher.

Tests used:
Experiment in all cases: growth of human tumour cells (NCI), 48 h
[1] = system: 786-0
[2] = system: EKVX
[3] = system: K562
[4] = system: ACHN
[5] = system: DLD-1
[6] = system: NCI-H460
[7] = system: SNB-78
[8] = system: CCRF-CEM
[9] = system: IGROV-1
[10] = system: RPMI-8226
[11] = system: MOLT-4
[12] = system: DMS-114
[13] = system: HCT-116
[14] = system: HL-60
[15] = system: SK-MEL-5
[16] = system: SF-268
[17] = system: SR
[18] = system: SK-MEL-2
[19] = system: OVCAR-5
[20] = system: UACC-257
[21] = system: SK-MEL-28
[22] = system: HOP-92
[23] = system: COLO 205
[24] = system: HCC 2998
[25] = system: SNB-19
[26] = system: SF-295
[27] = system: U-251
[28] = system: SF-539
[29] = system: A549
[30] = system: OVCAR-8
[31] = system: RXF 393
[32] = system: UO-31
[33] = system: SNB-75
[34] = system: XF498
[35] = system: M19-MEL
[36] = system: M14
[37] = system: Malme-3M
[38] = system: UACC-62
[39] = system: HCT-15
[40] = system: NCI-H522
[41] = system: HOP-62
[42] = system: RXF 631
[43] = system: CAKI-1
[44] = system: HT-29
[45] = system: KM12
[46] = system: SK-OV-3
[47] = system: NCI-H23
[48] = system: A498
[49] = system: SN12C
[50] = system: HOP-18
[51] = system: KM-20L2
[52] = system: OVCAR-4

Clc1ccc(CCN2CCOCC2)c(Cl)c1
GI50 [1]: > 100 µM (inactive)
GI50 [2]: > 100 µM (inactive)
GI50 [3]: > 100 µM (inactive)
GI50 [4]: > 100 µM (inactive)
GI50 [5]: > 100 µM (inactive)
GI50 [6]: > 100 µM (inactive)
GI50 [7]: > 100 µM (inactive)
GI50 [8]: > 100 µM (inactive)
GI50 [9]: > 100 µM (inactive)
GI50 [10]: > 100 µM (inactive)
GI50 [11]: > 100 µM (inactive)
GI50 [12]: > 100 µM (inactive)
GI50 [13]: > 100 µM (inactive)
GI50 [14]: > 100 µM (inactive)
GI50 [15]: > 100 µM (inactive)
GI50 [16]: > 100 µM (inactive)
GI50 [17]: > 100 µM (inactive)
GI50 [18]: > 100 µM (inactive)
GI50 [19]: > 100 µM (inactive)
GI50 [20]: > 100 µM (inactive)
GI50 [21]: > 100 µM (inactive)
GI50 [22]: > 100 µM (inactive)
GI50 [23]: > 100 µM (inactive)
GI50 [24]: > 100 µM (inactive)
GI50 [25]: > 100 µM (inactive)
GI50 [26]: > 100 µM (inactive)
GI50 [27]: > 100 µM (inactive)
GI50 [28]: > 100 µM (inactive)
GI50 [29]: > 100 µM (inactive)
GI50 [30]: > 100 µM (inactive)
GI50 [31]: 12.5 µM (inactive)
GI50 [32]: > 100 µM (inactive)
GI50 [33]: 17.6 µM (inactive)
GI50 [34]: > 100 µM (inactive)
GI50 [35]: > 100 µM (inactive)
GI50 [36]: > 100 µM (inactive)
GI50 [37]: > 100 µM (inactive)
GI50 [38]: 92.5 µM (inactive)
GI50 [39]: > 100 µM
GI50 [40]: > 100 µM (inactive)
GI50 [41]: > 100 µM (inactive)
GI50 [42]: > 100 µM (inactive)
GI50 [43]: > 100 µM (inactive)
GI50 [44]: > 100 µM (inactive)
GI50 [45]: > 100 µM (inactive)
GI50 [46]: > 100 µM (inactive)
GI50 [47]: > 100 µM (inactive)
GI50 [48]: > 100 µM (inactive)
GI50 [49]: > 100 µM (inactive)
GI50 [50]: > 100 µM (inactive)
GI50 [51]: > 100 µM (inactive)
GI50 [52]: > 100 µM (inactive)
